The source of these data is patent US20190263799A1, “1H-IMIDAZO[4,5-B]PYRIDINYL AND 2-OXO-2,3-DIHYDRO-1H-IMIDAZO[4,5-B]PYRIDINYL HETEROCYCLIC BET BROMODOMAIN INHIBITORS” (ZENITH EPIGENETICS LTD., priority 2015, published 2019).

For experiment [1], the system named is BCL2. Put plainly: Durability of BCL2 expression inhibition after washout in MV4-11 cells. The following applies: Homo sapiens. The experiment is classed as cell-based. The protocol: (§1) MV4-11 cells were treated for 3 hours after which compounds were removed, cells washed with media 3 times, replaced with media; harvest was performed 5 hours post washout and the expression of MYC and BCL2 was determined.
(§2) MV4-11 cells (CRL-9591) were plated at a density of 2.5×10^4 cells per well in 96 well U-bottom plates and treated with increasing concentrations of test compound or DMSO (0.1%) in IMDM media containing 10% FBS and penicillin/streptomycin, and incubated for […] 37° C. after which the compounds are removed, replaced with media and cells were harvested at 5 hours post washout. Triplicate wells were used for each concentration. Cells were pelleted by centrifugation and harvested using the mRNA Catcher PLUS kit according to manufacturer's instructions. The eluted mRNA isolated was then used in a one-step quantitative real-time PCR reaction, using components of the RNA UltraSense™ One-Step Kit (Life Technologies) together with Applied Biosystems TaqMan® primer-probes for cMYC and Cyclophilin. Real-time PCR plates were run on a ViiA™7 real time PCR machine (Applied Biosystems), data was analyzed, normalizing the Ct values for MYC and BCL2 to an internal control, prior to determining the fold expression of each sample, relative to the control.

Experiment [2] deals with MYC. The experiment in a line: Durability of MYC expression inhibition after washout in MV4-11 cells. Particulars: Homo sapiens. The experiment is classed as cell-based. The protocol: as §1, §2
Experiment [3] deals with cMYC. The experiment in a line: Inhibition of cMYC expression in cancer cell lines (MV4-11, real-time PCR). The following applies: Homo sapiens, read-out: Myc activity. The experiment is classed as cell-based. The protocol: MV4-11 cells (CRL-9591) were plated at a density of 2.5×10^4 cells per well in 96 well U-bottom plates and treated with increasing concentrations of test compound or DMSO (0.1%) in IMDM media containing 10% FBS and penicillin/streptomycin, and incubated for 3 h at 37° C. Triplicate wells were used for each concentration. Cells were pelleted by centrifugation and harvested using the mRNA Catcher PLUS kit according to manufacturer's instructions. The eluted mRNA isolated was then used in a one-step quantitative real-time PCR reaction, using components of the RNA UltraSense™ One-Step Kit (Life Technologies) together with Applied Biosystems TaqMan® primer-probes for cMYC and Cyclophilin. Real-time PCR plates were run on a ViiA™7 real time PCR machine (Applied Biosystems), data were analyzed, normalizing the Ct values for cMYC to an internal control, prior to determining the fold expression of each sample, relative to the control.

Experiment [4] has as its system MV4-11 cells. The experiment in a line: Washout proliferation: durability of proliferation inhibition in MV4-11 cells. The experiment is classed as cell-based. Particulars: Homo sapiens. The protocol: FIG. 1 depicts inhibition of proliferation. […] MV4-11 cells were treated for 16 hours after which compounds were removed, cells washed 3 times with media, replaced with media and proliferation was measured at 72 h post washout.
MV4-11 cells (CRL-9591) were plated at a density of 5×10^4 cells per well in 96 well flat bottom plates and treated with increasing concentrations of compounds or DMSO (0.1%) in IMDM media containing 10% FBS and penicillin/streptomycin. Triplicate wells were used for each concentration and a well containing only media was used as a control. Plates were incubated at 37° C., 5% CO2 for 16 h after which the compounds were removed, replaced with media, and proliferation was measured at 72 hours post washout by adding 100 μL of the Cell Titer Fluor 96 Cell Viability Assay (Promega). After the incubation for 45 min at 37° C. with 5% CO2 fluorescence is read on the Synergy plate reader set at 380-400 nm Ex/505 nm. Percentage of cell viability to DMSO-treated cells was calculated after correcting for background by subtracting the blank well's signal. IC50 values were calculated using the GraphPad Prism software from the dose-dependent inhibition of proliferation.

The subject of experiment [5] is MV4-11 cells. The experiment in a line: Inhibition of cell proliferation in cancer cell lines (MV4-11, CellTiter Aqueous One). The experiment is classed as cell-based. Particulars: Homo sapiens, read-out: Proliferation activity. The protocol: MV4-11 cells (CRL-9591) were plated at a density of 5×10^4 cells per well in 96 well flat bottom plates and treated with increasing concentrations of test compound or DMSO (0.1%) in IMDM media containing 10% FBS and penicillin/streptomycin. Triplicate wells were used for each concentration and a well containing only media was used as a control. Plates were incubated at 37° C., 5% CO2 for 72 h before adding 20 μL of the CellTiter Aqueous One Solution (Promega) to each well and incubating at 37° C., 5% CO2 for an additional 3-4 h. The absorbance was read at 490 nm in a spectrophotometer and the percentage of cell titer relative to DMSO-treated cells was calculated after correcting for background by subtracting the blank well's signal. IC50 values were calculated using the GraphPad Prism software.

Experiment [6] concerns the target T1, BRD4(1) (Homo sapiens, UniProt O60885).
T1 construct: N-terminally His-tagged bromodomains (BRD4(1) at 20 nM and BRD4(2) at 100 nM); made in house; host or cells: E. coli BL21(DE3)
Put plainly: Inhibition of tetra-acetylated histone H4 binding to individual BET bromodomains (AlphaScreen). Particulars: His-tagged BRD4(1) 20 nM, biotinylated tetra-acetylated histone H4 peptide, 30 min incubation; read-out: FRET activity BRD4(1). Here is the method: Proteins were cloned and overexpressed with a N-terminal 6×His tag, then purified by nickel affinity followed by size exclusion chromatography. Briefly, E. coli BL21(DE3) cells were transformed with a recombinant expression vector encoding N-terminally Nickel affinity tagged bromodomains from Brd2, Brd3, Brd4. Cell cultures were incubated at 37° C. with shaking to the appropriate density and induced overnight with IPTG. The supernatant of lysed cells was loaded onto Ni-IDA column for purification. Eluted protein was pooled, concentrated and further purified by size exclusion chromatography. Fractions representing monomeric protein were pooled, concentrated, aliquoted, and frozen at −80° C. for use in subsequent experiments.
Binding of tetra-acetylated histone H4 peptide (Millipore) and BET bromodomains was confirmed by Amplified Luminescent Proximity Homogenous Assay (AlphaScreen). N-terminally His-tagged bromodomains (BRD4(1) at 20 nM and BRD4(2) at 100 nM) and biotinylated tetra-acetylated histone H4 (10-25 nM) were incubated in the presence of nickel chelate acceptor beads and streptavidin donor beads (PerkinAlmer, 6760000K) added to a final concentration of 2 μg/mL under green light in a white 96 well microtiter plate (Greiner). For inhibition assays, serially diluted compounds were added to the reaction mixtures in a 0.1% final concentrations of DMSO. Final buffer concentrations were 50 mM HEPES, 100 mM NaCl and 0.1% BSA buffer, pH 7.4 and optimized to 30 min incubation time. Assay plates were read at 570 nm on a Synergy H4 Plate Reader (Biotek). IC50 values were determined from a dose response curve.
(In general: Bead proximity is the source of the signal in Alpha formats.)

The structures appear in SMILES notation. Like-named read-outs stand apart in the source and are kept apart here.

Turning to `C=CC(=O)N(C)c1cnc2nc(N3CCCC3)n(Cc3ccccc3)c2c1` [Example 15, N-(1-Benzyl-2-(pyrrolidin-1-yl)-1H-imidazo[4,5-b]pyridin-6-yl)-N-methylacrylamide], the IC50 in experiment [1] (MV4-11, read-out: IC50 of BCL2 inhibition at 5 hours post washout) was 7.9 µM; in experiment [2] (MV4-11, read-out: IC50 of sustained MYC inhibition at 5 h post washout) it was 23 µM; in experiment [3] (MV4-11, 3 h), 0.3 to 3 µM; in experiment [4] (MV4-11, read-out: IC50 of inhibition of proliferation after 72 hours of compound removal), 5.98 µM; in experiment [5] (MV4-11, 72 h), 0.3 to 3 µM; in experiment [6] it was no more than 0.3 µM.

As for `CC(=O)N(C)c1cnc2nc(N3CCCC3)n(Cc3ccccc3)c2c1` [Example 18, N-(1-Benzyl-2-(pyrrolidin-1-yl)-1H-imidazo[4,5-b]pyridin-6-yl)-N-methylacetamide], the IC50 is roughly 50 µM in experiment [1] (MV4-11 cells treated 3 h, washed, harvested 5 h post washout, read-out: IC50 of BCL2 inhibition at 5 hours post washout); 29 µM in experiment [2] (MV4-11 cells treated 3 h, washed, harvested 5 h post washout, read-out: IC50 of sustained MYC inhibition at 5 h post washout); 0.3 to 3 µM in experiment [3] (MV4-11 cells, 3 h incubation, cMYC mRNA); roughly 50 µM in experiment [4] (MV4-11 cells treated 16 h, washed, proliferation measured 72 h post washout, read-out: IC50 of inhibition of proliferation after 72 hours of compound removal); 0.3 to 3 µM in experiment [5] (MV4-11 cells, 72 h incubation); no more than 0.3 µM in experiment [6].
